This assay concerns male Std: Wistar rats. The assay is described as follows: Pain test by plantar thermal stimuli (plantar test). Conditions: Rattus norvegicus, 4 h, 50 μl of 0.03% (W/V) solution i.pl. into right hind-paw; 4 hours after administration; cut-off 25 seconds; read-out: % MPE (percent maximum possible effect, withdrawal latency). It counts as in vivo. The protocol: Experiment 1: Pain Test by Plantar Thermal Stimuli (Plantar Test)
In the present experiment, the analgesic effect of the compounds of the invention was evaluated by the measurements of withdrawal latency to noxious thermal stimuli, according to the methods of Hargreaves, et al., [Pain, 32, 77-88 (1988)] and Field, et al., [J. Pharmacol. Exp. Ther., 282, 1242-1246 (1997)].
In detail, the experiment was carried out using male Std: Wistar rats (4 rats/group; body weight, 170-220 g) and a plantar test device (Model 7370, Ugo Basile) with infrared beam as a heat source. The rat was put into an experimental cage that is an acrylic box whose bottom is made of glass and was habituated therein. Then, the infrared beam was radiated to the plantar surface of right hind-paw thereof through the floor glass, and the withdrawal latency was measured every 5 minutes, 3 times. The intension of the infrared beam was adjusted so that the pre-drug administration latency was about 10 seconds. The cut-off time was set at 25 seconds in order to prevent a paw burn. The average of the latencies was calculated, and then it was defined as the value of the pre-drug administration latency of the test compound.
Next day, 50 μl of each solution of the test compounds [the compounds of the invention, the compounds of the comparative Examples and capsaicin (Sigma, U.S.A.)] or 50 μl of vehicle solvent (reference) was given to a right hind-paw of the rat by intraplantar injection (i. pl.) using a micro-syringe. The test compound was dissolved in a saline solution containing 10% Tween 80 (Sigma, U.S.A) and 10% ethanol to give a 0.03% (W/V) solution. The saline solution containing 10% Tween 80 and 10% ethanol was used as reference. Four hours after i.pl. administration of each the test compound or the reference to the rats, the experiment mentioned above was carried out, and then the post-drug administration latency was measured. The analgesic effects thereof were calculated with the following formula, which was known as a percent maximum possible effect (% MPE). % MPE=[(the value of post-drug latency−the value of pre-drug latency)/(25*−the value of pre-drug latency)]×100 *: cut-off time

On to `COc1cc(CC(=O)N[C@H]2CC[C@@H](/C=C/CC3CC3)CC2)ccc1O` [Example 67], for which the change in vivo at 300 µg/mL came out at 55.6%.

For the compound `CCC[C@H]1CC[C@@H](NC(=O)Cc2ccc(O)c(OC)c2)CC1` [Example 68, 2-(4-hydroxy-3-methoxyphenyl)-N-(cis-4-propylcyclohexyl)acetamide], the change in vivo at 300 µg/mL came out at 81.6%. For the compound `COc1cc(CC(=O)N[C@H]2CC[C@@H](CCCC(C)C)CC2)ccc1O` [Example 69], the change in vivo at 300 µg/mL was determined as 79.9%. With `COc1cc(CC(=O)N[C@H]2CC[C@@H](CCC3CCC3)CC2)ccc1O` [Example 70], the change in vivo at 300 µg/mL turned out to be 92.6%. Regarding `COc1cc(CC(=O)N[C@H]2CC[C@@H](CCCC3CC3)CC2)ccc1O` [Example 71], the change in vivo at 300 µg/mL came to 87.9%. Consider `C=C(C)/C=C/[C@H]1CC[C@H](NC(=O)Cc2ccc(O)c(OC)c2)CC1` [Example 72, 2-(4-hydroxy-3-methoxyphenyl)-N-{trans-4-[(E)-3-methyl-1,3-butadienyl]cyclohexyl}acetamide], for which the change in vivo at 300 µg/mL is 75.4%. In the case of `C/C=C\CC[C@H]1CC[C@H](NC(=O)Cc2ccc(O)c(OC)c2)CC1` [Example 73, 2-(4-hydroxy-3-methoxyphenyl)-N-{trans-4-[(Z)-3-pentenyl]cyclohexyl}acetamide] it was 74.1%; in that of `C=CCC[C@H]1CC[C@H](NC(=O)Cc2ccc(O)c(OC)c2)CC1` [Example 74, N-[trans-4-(3-butenyl)cyclohexyl]-2-(4-hydroxy-3-methoxyphenyl)acetamide], 57.1%. Consider `C/C=C/CC[C@H]1CC[C@H](NC(=O)Cc2ccc(O)c(OC)c2)CC1` [Example 75, 2-(4-hydroxy-3-methoxyphenyl)-N-{trans-4-[(E)-3-pentenyl]cyclohexyl}acetamide], for which the change in vivo at 300 µg/mL came to 74.4%. As for `COc1cc(CC(=O)NC2CCC(=C3CCCCC3)CC2)ccc1O` (stereo not shown) [Example 76, N-(4-cyclohexylidenecyclohexyl)-2-(4-hydroxy-3-methoxyphenyl)acetamide], the change in vivo at 300 µg/mL was found to be 71%. Then `CCC(CC)=C1CCC(NC(=O)Cc2ccc(O)c(OC)c2)CC1` (stereo not shown) [Example 77], with 78.6%; and `CCCC(CCC)=C1CCC(NC(=O)Cc2ccc(O)c(OC)c2)CC1` (stereo not shown) [Example 78], with 82.8%. As for `COc1cc(CC(=O)NC2CCC(=C3CCC3)CC2)ccc1O` (stereo not shown) [Example 79], the change in vivo at 300 µg/mL came out at 33.6%.

Regarding `COc1cc(CC(=O)NC2CCC(=C3CCCC3)CC2)ccc1O` (stereo not shown) [Example 80], the change in vivo at 300 µg/mL was 37%. For `COc1cc(CC(=O)NC2CCC(=C3CCCCCC3)CC2)ccc1O` (stereo not shown) [Example 81], the change in vivo at 300 µg/mL was 94.4%.

On to `COc1cc(CC(=O)NC2CCC(=C(C)C)CC2)ccc1O` (stereo not shown) [Example 82, 2-(4-hydroxy-3-methoxyphenyl)-N-(4-isopropylidenecyclohexyl)acetamide], for which the change in vivo at 300 µg/mL is 68.4%.

For `COc1cc(CC(=O)N[C@H]2CC[C@H](C3CCCCC3)CC2)ccc1O` [Example 83, N-(trans-4-cyclohexylcyclohexyl)-2-(4-hydroxy-3-methoxyphenyl)acetamide], the change in vivo at 300 µg/mL is 77.4%. As for `CCC(CC)[C@H]1CC[C@H](NC(=O)Cc2ccc(O)c(OC)c2)CC1` [Example 84], the change in vivo at 300 µg/mL turned out to be 76.9%. With `CCCC(CCC)[C@H]1CC[C@H](NC(=O)Cc2ccc(O)c(OC)c2)CC1` [Example 85], the change in vivo at 300 µg/mL was found to be 49.3%. Regarding `COc1cc(CC(=O)N[C@H]2CC[C@H](C3CCC3)CC2)ccc1O` [Example 86], the change in vivo at 300 µg/mL amounted to 68.6%. `COc1cc(CC(=O)N[C@H]2CC[C@H](C3CCCCCC3)CC2)ccc1O` [Example 87]: the change in vivo at 300 µg/mL came to 80.1%. In the case of `CCC(CC)C1=CCC(NC(=O)Cc2ccc(O)c(OC)c2)CC1` (stereo not shown) [Example 88, 2-(4-hydroxy-3-methoxyphenyl)-N-[4-(3-pentyl)-3-cyclohexenyl]acetamide] it was 95.5%; in that of `CCCC(CCC)C1=CCC(NC(=O)Cc2ccc(O)c(OC)c2)CC1` (stereo not shown) [Example 89, N-[4-(4-heptyl)-3-cyclohexenyl]-2-(4-hydroxy-3-methoxyphenyl)acetamide], 100%.

As for `COc1cc(CC(=O)N[C@H]2CC[C@H](C=C3CCC3)CC2)ccc1O` [Example 91, N-[trans-4-(cyclobutylidenemethyl)-cyclohexyl]-2-(4-hydroxy-3-methoxyphenyl)acetamide], the change in vivo at 300 µg/mL is 74.2%. In the case of `COc1cc(CC(=O)N[C@H]2CC[C@H](CC3CCC3)CC2)ccc1O` [Example 93, N-[trans-4-(cyclobutylmethyl)cyclohexyl]-2-(4-hydroxy-3-methoxyphenyl)acetamide] it was 69.7%; in that of `C/C=C\C[C@H]1CC[C@H](NC(=O)Cc2ccc(O)c(OC)c2)CC1` [Example 94, N-{trans-4-[(Z)-2-butenyl]cyclohexyl}-2-(4-hydroxy-3-methoxyphenyl)acetamide], 69.1%; in that of `COc1cc(CC(=O)N[C@H]2CC[C@@H](C=C(C)C)CC2)ccc1O` [Example 95, 2-(4-hydroxy-3-methoxyphenyl)-N-[cis-4-(2-methyl-1-propenyl)cyclohexyl]acetamide], 88.8%.

With `COc1cc(CC(=O)N[C@H]2CC[C@@H](CC(C)C)CC2)ccc1O` [Example 96, 2-(4-hydroxy-3-methoxyphenyl)-N-[cis-4-(2-methylpropyl)cyclohexyl]acetamide], the change in vivo at 300 µg/mL stood at 80.4%. On to `C/C=C(\CC)[C@H]1CC[C@@H](NC(=O)Cc2ccc(O)c(OC)c2)CC1` [Example 97, N-{cis-4-[(E)-1-ethyl-1-propenyl]-cyclohexyl}-2-(4-hydroxy-3-methoxyphenyl)acetamide], for which the change in vivo at 300 µg/mL worked out at 63.8%. As to `CCC(CC)[C@H]1CC[C@@H](NC(=O)Cc2ccc(O)c(OC)c2)CC1` [Example 98, 2-(4-hydroxy-3-methoxyphenyl)-N-[cis-4-(3-pentyl)cyclohexyl]acetamide], the change in vivo at 300 µg/mL came to 74.6%. As to `COc1cc(CC(=O)N[C@H]2CC[C@H](CCCCF)CC2)ccc1O` [Example 99, N-[trans-4-(4-fluorobutyl)cyclohexyl]-2-(4-hydroxy-3-methoxyphenyl)acetamide], the change in vivo at 300 µg/mL came out at 55.8%. For `COc1cc(CC(=O)N[C@H]2CC[C@H](CC3CC3)CC2)ccc1O` [Example 100, N-(trans-4-cyclopropylmethylcyclohexyl)-2-(4-hydroxy-3-methoxyphenyl)acetamide], the change in vivo at 300 µg/mL turned out to be 44.5%. As to `COc1cc(CC(=O)N[C@H]2CC[C@H](/C=C/CC(F)(F)F)CC2)ccc1O` [Example 102], the change in vivo at 300 µg/mL came to 56.6%. As to `COc1cc(CC(=O)N[C@H]2CC[C@H](/C=C/CCF)CC2)ccc1O` [Example 103], the change in vivo at 300 µg/mL turned out to be 36.7%. Take `COc1cc(CC(=O)NC2CCC3(CCCCC3)CC2)ccc1O` [Example 105, 2-(4-hydroxy-3-methoxyphenyl)-N-(spiro[5.5]undec-3-yl)acetamide]: the change in vivo at 300 µg/mL is 63.4%. As to `CCC1(CC)CCC(NC(=O)Cc2ccc(O)c(OC)c2)CC1` [Example 106], the change in vivo at 300 µg/mL was found to be 51.5%. On to `CCCCC1(CC)CCC(NC(=O)Cc2ccc(O)c(OC)c2)CC1` (stereo not shown) [Example 107], for which the change in vivo at 300 µg/mL worked out at 85.2%.

These data come from patent US7767854B2, “N-substituted phenylacetamide derivative and pharmaceutical composition containing the same” (Dainippon Sumitomo Pharma Co., Ltd., priority 2005, dated 2010).
